Data as given in US5912235A, “10, 13, 15-trioxatricyclo [9.2.1.1.^9.6 ]-pentadecan one derivatives, method for their production and pharmaceutical compositions containing them” (Solvay Pharmaceuticals GmbH, priority 1996, dated 1999).

Tests used:
motilin receptors = biological target: T1, motilin receptors (Oryctolagus cuniculus, UniProt G1T803); assay: Determination of the binding capacity of the test substances to motilin receptors (displacement of 125-iodine-labelled motilin, crude membrane preparation from rabbit antrum); conditions: tissue homogenate fraction from rabbit antrum; iodinated motilin 50 pM; 30° C., 60 min; read-out: pIC50 value (50% inhibition of the specific binding of the iodinated motilin to the motilin receptors) (converted)
T1 construct: fraction of a tissue homogenate from rabbit antrum; from tissue; host or cells: rabbit antrum, mucosa removed, crude membrane preparation
T1 sequence (G1T803 1-400): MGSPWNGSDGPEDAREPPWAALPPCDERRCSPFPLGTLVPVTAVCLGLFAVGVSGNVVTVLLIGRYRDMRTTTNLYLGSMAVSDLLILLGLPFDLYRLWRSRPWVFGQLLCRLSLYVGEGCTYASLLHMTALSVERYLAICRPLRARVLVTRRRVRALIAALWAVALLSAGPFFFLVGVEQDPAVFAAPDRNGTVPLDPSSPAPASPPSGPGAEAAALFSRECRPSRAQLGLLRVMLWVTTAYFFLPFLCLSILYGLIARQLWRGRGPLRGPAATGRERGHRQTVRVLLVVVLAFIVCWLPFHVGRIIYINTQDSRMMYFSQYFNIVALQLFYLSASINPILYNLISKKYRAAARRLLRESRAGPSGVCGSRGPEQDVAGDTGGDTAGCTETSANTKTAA
Procedure: 1. Determination of the binding capacity of the test substances to motilin receptors.
The affinity of the compounds of Formula I for motilin receptors is measured in vitro on a fraction of a tissue homogenate from rabbit antrum. The displacement of radioactively labelled iodinated motilin from motilin receptor binding by the test substances is determined.
The receptor binding studies are carried out by a modification of the method of Borman et al. (Regulatory Peptides, 15:143-153 (1986). To prepare the ^125 iodine-labelled motilin, motilin is iodinated enzymatically using lactoperoxidase in known manner, for example in analogy to the method described by Bloom et al., Scand. J. Gastroenterol.,11:47-52 (1976). […]
For the binding test, 200 μl of the crude membrane fraction (0.5-1 mg of protein) in 400 μl of a buffer solution A (50 mM tris-HCl buffer, 1.5% BSA, 10 mM MgCl2, pH 8.0) are incubated with 100 μl of iodinated motilin diluted in buffer solution B (10 mM tris-HCl buffer, 1% BSA, pH 8) (final concentration 50 pM) at 30° C. for 60 min. […] The residue obtained as pellet after the centrifugation is washed with buffer solution B and counted in a gamma counter. […] From this the corresponding pIC50 value is calculated.

stomach tone = assay: In vivo determination of the effect of the substances on the stomach tone (barostat, stomach volume at constant pressure after lipid intake); conditions: beagles; maximum tolerable dose; stomach volume measured at constant pressure with barostat
Procedure: 2. In vivo determination of the effect of the substances on the stomach tone.
The stomach tone plays an important role in gastric emptying. An increased stomach tone contributes to an increased rate of gastric emptying.
The influence of substances on the stomach tone is determined on beagles with the aid of a barostat which is connected to a plastic pouch in the stomach of the dog and permits measurement of volume or pressure in the stomach of the dog. With the barostat, the stomach volume is determined at a constant pressure in the stomach or the stomach pressure is determined at a constant volume in the stomach. When the stomach tone increases, a reduced stomach volume is detected at a given pressure, and an increased pressure at a given volume. In the test model used to investigate the increase in stomach tone effected by the substances, the change in stomach volume caused by the substances is measured at constant pressure. The stomach of the test animals is relaxed by intake of lipids, i.e. the stomach tone decreases, which causes the stomach volume to increase correspondingly. The reduction in % of the stomach volume which has been increased by administration of lipids which occurs after intake of the substance due to a re-increase in stomach tone is measured as a measurement of the stomach tone-increasing action of the substances.

IC50 (motilin receptors): 14.1 nM
SMILES: CC[C@@H](O)[C@@]1(C)O[C@]23O[C@](C)(CC2C)[C@H](O[C@@H]2O[C@H](C)C[C@H](N(C)C(C)C)[C@H]2O)[C@@H](C)[C@H](O[C@H]2C[C@@](C)(OC)[C@@H](O)[C@H](C)O2)[C@@H](C)C(=O)O[C@@H]1[C@H]3C (stereo partly drawn) [Example 1, [(1'R),2R,3S,4S,5R,6R,9R,11R,12R,14R]-11-(1'-hydroxypropyl)-3-[(2,6-dideoxy-3-C-methyl-3-0-methyl-α-L-ribohexopyranosyl)-oxy]-5-[(3,4,6-trideoxy-3-(N-methyl-N-isopropylamino)-β-D-xylo-hexopyranosyl)-oxy]-2,4,6,8,11,14-hexamethyl-10,13,15-trioxatricyclo[9.2.1.1^9.6]-pentadecan-1-one]
reduction in the stomach volume increased after lipid administration (stomach tone): 69%
